From patent US20250353891A1 (MEDIMMUNE LIMITED, priority 2022, published 2025) come the findings set out here.

The target in experiment [1] is human GLP-1 receptor (hGLP-1R) (Homo sapiens, UniProt P43220). As to the kind of experiment: cAMP production (HTRF) in CHO cells expressing hGLP-1R. The following applies: for EC50: Table 7, peptides modified at position 20, cAMP in CHO hGLP-1R cells, geometric mean, read-out: hGLP-1R EC50; for % Relative Potency Ratio: Table 7, % GLP-1R activity relative to GLP-1 / % GlucR activity relative to glucagon. Details: expressed in transfected cells. Format: cell-based. A digest of the protocol:
(§1)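 Cells were resuspended in assay buffer at batch-optimized density, typically 1×10^5 cells/mL for hGLP-1R and 2×10^5 cells/mL for hGCGR. After 30 min incubation at room temperature with compound, cAMP was measured by two-step HTRF. EC50 values came from 4-parameter logistic fits of % Delta F.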

Experiment [2] concerns the target human glucagon receptor (hGCGR) (Homo sapiens, UniProt P47871). Kind of experiment: cAMP production (HTRF) in CHO cells expressing hGCGR. In kind it is cell-based. Details: expressed in transfected cells. The following applies: Table 7, peptides modified at position 20; cAMP in CHO hGCGR cells; geometric mean; read-out: hGluc-R EC50. A digest of the protocol:
as §1

Structures are written as SMILES. Starred links: 1 amine or outer side, 2 acyl side, 3 side chain; linkers in the order of their positions; H or OH if unused. Non-standard residues stand in square brackets, D forms with d. Residues, ends and D or L forms follow the SMILES beside them. Groups on a side chain read outwards from the residue. *: point of attachment. C20 diacid = O=C(O)CCCCCCCCCCCCCCCCCCC(=O)*; C18 diacid = O=C(O)CCCCCCCCCCCCCCCCC(=O)*; γGlu = O=C(O)[C@H](CCC(=O)[*:2])N[*:1]; αMeF = C[C@](N)(Cc1ccccc1)C(=O)O; PEG4 = NCCOCCOCCOCCOCCC(=O)O; AEEA = NCCOCCOCC(=O)O; Aib = CC(C)(N)C(=O)O

Chain of human GLP-1 receptor (hGLP-1R) (P43220 24-463): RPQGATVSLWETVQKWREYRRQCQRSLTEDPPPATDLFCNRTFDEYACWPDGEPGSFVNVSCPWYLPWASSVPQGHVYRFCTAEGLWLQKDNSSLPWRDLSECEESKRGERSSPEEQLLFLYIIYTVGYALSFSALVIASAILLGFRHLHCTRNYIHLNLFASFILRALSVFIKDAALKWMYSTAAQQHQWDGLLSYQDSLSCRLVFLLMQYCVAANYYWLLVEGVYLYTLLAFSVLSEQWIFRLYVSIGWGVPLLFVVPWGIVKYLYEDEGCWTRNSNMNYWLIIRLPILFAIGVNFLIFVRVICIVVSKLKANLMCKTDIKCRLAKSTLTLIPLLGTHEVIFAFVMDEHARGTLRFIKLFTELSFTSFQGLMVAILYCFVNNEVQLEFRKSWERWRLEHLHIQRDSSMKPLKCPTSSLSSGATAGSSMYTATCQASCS
Chain of human glucagon receptor (hGCGR) (P47871 26-477): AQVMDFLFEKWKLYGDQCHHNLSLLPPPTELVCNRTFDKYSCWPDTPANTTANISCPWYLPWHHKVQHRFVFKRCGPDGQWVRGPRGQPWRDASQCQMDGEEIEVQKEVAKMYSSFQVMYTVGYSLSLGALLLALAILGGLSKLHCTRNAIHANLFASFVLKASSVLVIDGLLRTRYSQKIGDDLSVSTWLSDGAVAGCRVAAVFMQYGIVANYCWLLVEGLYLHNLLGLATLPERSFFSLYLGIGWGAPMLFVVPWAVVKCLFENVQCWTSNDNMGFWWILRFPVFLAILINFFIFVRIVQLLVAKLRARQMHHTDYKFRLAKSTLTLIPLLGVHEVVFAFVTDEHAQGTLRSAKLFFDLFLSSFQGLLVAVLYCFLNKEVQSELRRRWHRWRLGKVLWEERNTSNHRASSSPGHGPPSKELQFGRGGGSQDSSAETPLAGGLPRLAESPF

Regarding `CC[C@H](C)[C@H](NC(=O)C(C)(C)NC(=O)[C@H](CCC(N)=O)NC(=O)[C@@H](NC(=O)[C@](C)(Cc1ccccc1)NC(=O)[C@H](CC(=O)O)NC(=O)[C@H](CCCCNC(=O)CCOCCOCCOCCOCCNC(=O)CC[C@H](NC(=O)CC[C@H](NC(=O)CCCCCCCCCCCCCCCCCCC(=O)O)C(=O)O)C(=O)O)NC(=O)[C@H](C)NC(=O)[C@H](C)NC(=O)[C@H](CCCNC(=N)N)NC(=O)[C@H](CO)NC(=O)[C@H](CC(=O)O)NC(=O)[C@H](CC(C)C)NC(=O)[C@](C)(Cc1ccccc1)NC(=O)[C@H](CCCCN)NC(=O)[C@H](CO)NC(=O)[C@@H](NC(=O)[C@H](CC(=O)O)NC(=O)[C@H](CO)NC(=O)[C@@H](NC(=O)[C@](C)(Cc1ccccc1)NC(=O)[C@H](CO)NC(=O)CNC(=O)[C@H](Cc1c[nH]cn1)NC(=O)C(C)(C)NC(=O)[C@@H](N)Cc1c[nH]cn1)[C@@H](C)O)C(C)C)C(C)C)C(=O)N[C@@H](C)C(=O)N[C@@H](CC(N)=O)C(=O)N[C@H](C(N)=O)[C@@H](C)O` [Peptide 269] (H-H[Aib]HGS[αMeF]TSDVSK[αMeF]LDSRAAK([PEG4-γGlu-γGlu-C20 diacid])D[αMeF]VQ[Aib]IANT-NH2; N-terminus assumed), the 50% effective concentration (EC50) came out at 0.052 nM in experiment [1] and 0.271 nM in experiment [2]. Besides, the “% Relative Potency Ratio” value in experiment [1] came out at 10.3.

`CC[C@H](C)[C@H](NC(=O)C(C)(C)NC(=O)[C@H](CCC(N)=O)NC(=O)[C@@H](NC(=O)[C@](C)(Cc1ccccc1)NC(=O)[C@H](CC(=O)O)NC(=O)[C@H](CCCCNC(=O)CC[C@H](NC(=O)CC[C@H](NC(=O)CCCCCCCCCCCCCCCCC(=O)O)C(=O)O)C(=O)O)NC(=O)[C@H](C)NC(=O)[C@H](C)NC(=O)[C@H](CCCNC(=N)N)NC(=O)[C@H](CO)NC(=O)[C@H](CC(=O)O)NC(=O)[C@H](CC(C)C)NC(=O)[C@](C)(Cc1ccccc1)NC(=O)[C@H](CCCCN)NC(=O)[C@H](CO)NC(=O)[C@@H](NC(=O)[C@H](CC(=O)O)NC(=O)[C@H](CO)NC(=O)[C@@H](NC(=O)[C@](C)(Cc1ccccc1)NC(=O)[C@H](CO)NC(=O)CNC(=O)[C@H](Cc1c[nH]cn1)NC(=O)C(C)(C)NC(=O)[C@@H](N)Cc1c[nH]cn1)[C@@H](C)O)C(C)C)C(C)C)C(=O)N[C@@H](C)C(=O)N[C@@H](CC(N)=O)C(=O)N[C@H](C(N)=O)[C@@H](C)O` [Peptide 270] (H-H[Aib]HGS[αMeF]TSDVSK[αMeF]LDSRAAK([γGlu-γGlu-C18 diacid])D[αMeF]VQ[Aib]IANT-NH2): in experiment [1], the EC50 is 0.0244 nM and the “% Relative Potency Ratio” value is 2.5. Further, the concentration giving a half-maximal response (EC50) in experiment [2] stood at 0.0313 nM.

For the compound `CC[C@H](C)[C@H](NC(=O)C(C)(C)NC(=O)[C@H](CCC(N)=O)NC(=O)[C@@H](NC(=O)[C@](C)(Cc1ccccc1)NC(=O)[C@H](CC(=O)O)NC(=O)[C@H](CCCCNC(=O)CC[C@H](NC(=O)CCCCCCCCCCCCCCCCC(=O)O)C(=O)O)NC(=O)[C@H](C)NC(=O)[C@H](C)NC(=O)[C@H](CCCNC(=N)N)NC(=O)[C@H](CO)NC(=O)[C@H](CC(=O)O)NC(=O)[C@H](CC(C)C)NC(=O)[C@](C)(Cc1ccccc1)NC(=O)[C@H](CCCCN)NC(=O)[C@H](CO)NC(=O)[C@@H](NC(=O)[C@H](CC(=O)O)NC(=O)[C@H](CO)NC(=O)[C@@H](NC(=O)[C@](C)(Cc1ccccc1)NC(=O)[C@H](CO)NC(=O)CNC(=O)[C@H](Cc1c[nH]cn1)NC(=O)C(C)(C)NC(=O)[C@@H](N)Cc1c[nH]cn1)[C@@H](C)O)C(C)C)C(C)C)C(=O)N[C@@H](C)C(=O)N[C@@H](CC(N)=O)C(=O)N[C@H](C(N)=O)[C@@H](C)O` [Peptide 271] (H-H[Aib]HGS[αMeF]TSDVSK[αMeF]LDSRAAK([γGlu-C18 diacid])D[αMeF]VQ[Aib]IANT-NH2; N-terminus assumed), in experiment [1], the EC50 was 0.0546 nM and the “% Relative Potency Ratio” value came to 1.0. The EC50 in experiment [2] was determined as 0.028 nM.

With `CC[C@H](C)[C@H](NC(=O)C(C)(C)NC(=O)[C@H](CCC(N)=O)NC(=O)[C@@H](NC(=O)[C@](C)(Cc1ccccc1)NC(=O)[C@H](CC(=O)O)NC(=O)[C@H](CCCCNC(=O)COCCOCCNC(=O)COCCOCCNC(=O)CCCCCCCCCCCCCCCCC(=O)O)NC(=O)[C@H](C)NC(=O)[C@H](C)NC(=O)[C@H](CCCNC(=N)N)NC(=O)[C@H](CO)NC(=O)[C@H](CC(=O)O)NC(=O)[C@H](CC(C)C)NC(=O)[C@](C)(Cc1ccccc1)NC(=O)[C@H](CCCCN)NC(=O)[C@H](CO)NC(=O)[C@@H](NC(=O)[C@H](CC(=O)O)NC(=O)[C@H](CO)NC(=O)[C@@H](NC(=O)[C@](C)(Cc1ccccc1)NC(=O)[C@H](CO)NC(=O)CNC(=O)[C@H](Cc1c[nH]cn1)NC(=O)C(C)(C)NC(=O)[C@@H](N)Cc1c[nH]cn1)[C@@H](C)O)C(C)C)C(C)C)C(=O)N[C@@H](C)C(=O)N[C@@H](CC(N)=O)C(=O)N[C@H](C(N)=O)[C@@H](C)O` [Peptide 272] (H-H[Aib]HGS[αMeF]TSDVSK[αMeF]LDSRAAK([AEEA-AEEA-C18 diacid])D[αMeF]VQ[Aib]IANT-NH2), in experiment [1], the EC50 was found to be 0.0157 nM and the “% Relative Potency Ratio” value came out at 1.8. Also, in experiment [2], the 50% effective concentration (EC50) amounted to 0.0143 nM.

Consider `CC[C@H](C)[C@H](NC(=O)C(C)(C)NC(=O)[C@H](CCC(N)=O)NC(=O)[C@@H](NC(=O)[C@](C)(Cc1ccccc1)NC(=O)[C@H](CC(=O)O)NC(=O)[C@H](CCCCNC(=O)COCCOCCNC(=O)CCCCCCCCCCCCCCCCC(=O)O)NC(=O)[C@H](C)NC(=O)[C@H](C)NC(=O)[C@H](CCCNC(=N)N)NC(=O)[C@H](CO)NC(=O)[C@H](CC(=O)O)NC(=O)[C@H](CC(C)C)NC(=O)[C@](C)(Cc1ccccc1)NC(=O)[C@H](CCCCN)NC(=O)[C@H](CO)NC(=O)[C@@H](NC(=O)[C@H](CC(=O)O)NC(=O)[C@H](CO)NC(=O)[C@@H](NC(=O)[C@](C)(Cc1ccccc1)NC(=O)[C@H](CO)NC(=O)CNC(=O)[C@H](Cc1c[nH]cn1)NC(=O)C(C)(C)NC(=O)[C@@H](N)Cc1c[nH]cn1)[C@@H](C)O)C(C)C)C(C)C)C(=O)N[C@@H](C)C(=O)N[C@@H](CC(N)=O)C(=O)N[C@H](C(N)=O)[C@@H](C)O` [Peptide 273] (H-H[Aib]HGS[αMeF]TSDVSK[αMeF]LDSRAAK([AEEA-C18 diacid])D[αMeF]VQ[Aib]IANT-NH2), for which, in experiment [1], the concentration giving a half-maximal response (EC50) amounted to 0.0221 nM and the “% Relative Potency Ratio” value is on record as 2.1. Further, the concentration giving a half-maximal response (EC50) in experiment [2] was found to be 0.0233 nM.

As to `CC[C@H](C)[C@H](NC(=O)C(C)(C)NC(=O)[C@H](CCC(N)=O)NC(=O)[C@@H](NC(=O)[C@](C)(Cc1ccccc1)NC(=O)[C@H](CC(=O)O)NC(=O)[C@H](CCCCNC(=O)COCCOCCNC(=O)CC[C@H](NC(=O)CC[C@H](NC(=O)CCCCCCCCCCCCCCCCC(=O)O)C(=O)O)C(=O)O)NC(=O)[C@H](C)NC(=O)[C@H](C)NC(=O)[C@H](CCCNC(=N)N)NC(=O)[C@H](CO)NC(=O)[C@H](CC(=O)O)NC(=O)[C@H](CC(C)C)NC(=O)[C@](C)(Cc1ccccc1)NC(=O)[C@H](CCCCN)NC(=O)[C@H](CO)NC(=O)[C@@H](NC(=O)[C@H](CC(=O)O)NC(=O)[C@H](CO)NC(=O)[C@@H](NC(=O)[C@](C)(Cc1ccccc1)NC(=O)[C@H](CO)NC(=O)CNC(=O)[C@H](Cc1c[nH]cn1)NC(=O)C(C)(C)NC(=O)[C@@H](N)Cc1c[nH]cn1)[C@@H](C)O)C(C)C)C(C)C)C(=O)N[C@@H](C)C(=O)N[C@@H](CC(N)=O)C(=O)N[C@H](C(N)=O)[C@@H](C)O` [Peptide 274] (H-H[Aib]HGS[αMeF]TSDVSK[αMeF]LDSRAAK([AEEA-γGlu-γGlu-C18 diacid])D[αMeF]VQ[Aib]IANT-NH2), the concentration giving a half-maximal response (EC50) is 0.0271 nM in experiment [1] and 0.0313 nM in experiment [2]. Also, the “% Relative Potency Ratio” value in experiment [1] amounted to 2.3.

With `CC[C@H](C)[C@H](NC(=O)C(C)(C)NC(=O)[C@H](CCC(N)=O)NC(=O)[C@@H](NC(=O)[C@](C)(Cc1ccccc1)NC(=O)[C@H](CC(=O)O)NC(=O)[C@H](CCCCNC(=O)CC[C@H](NC(=O)CC[C@H](NC(=O)CCCCCCCCCCCCCCCCCCC(=O)O)C(=O)O)C(=O)O)NC(=O)[C@H](C)NC(=O)[C@H](C)NC(=O)[C@H](CCCNC(=N)N)NC(=O)[C@H](CO)NC(=O)[C@H](CC(=O)O)NC(=O)[C@H](CC(C)C)NC(=O)[C@](C)(Cc1ccccc1)NC(=O)[C@H](CCCCN)NC(=O)[C@H](CO)NC(=O)[C@@H](NC(=O)[C@H](CC(=O)O)NC(=O)[C@H](CO)NC(=O)[C@@H](NC(=O)[C@](C)(Cc1ccccc1)NC(=O)[C@H](CO)NC(=O)CNC(=O)[C@H](Cc1c[nH]cn1)NC(=O)C(C)(C)NC(=O)[C@@H](N)Cc1c[nH]cn1)[C@@H](C)O)C(C)C)C(C)C)C(=O)N[C@@H](C)C(=O)N[C@@H](CC(N)=O)C(=O)N[C@H](C(N)=O)[C@@H](C)O` [Peptide 275] (H-H[Aib]HGS[αMeF]TSDVSK[αMeF]LDSRAAK([γGlu-γGlu-C20 diacid])D[αMeF]VQ[Aib]IANT-NH2), the EC50 in experiment [1] is 0.111 nM; in experiment [2], 0.175 nM. In experiment [1], the “% Relative Potency Ratio” value was found to be 3.1.

Consider `CC[C@H](C)[C@H](NC(=O)C(C)(C)NC(=O)[C@H](CCC(N)=O)NC(=O)[C@@H](NC(=O)[C@](C)(Cc1ccccc1)NC(=O)[C@H](CC(=O)O)NC(=O)[C@H](CCCCNC(=O)CC[C@H](NC(=O)CCCCCCCCCCCCCCCCCCC(=O)O)C(=O)O)NC(=O)[C@H](C)NC(=O)[C@H](C)NC(=O)[C@H](CCCNC(=N)N)NC(=O)[C@H](CO)NC(=O)[C@H](CC(=O)O)NC(=O)[C@H](CC(C)C)NC(=O)[C@](C)(Cc1ccccc1)NC(=O)[C@H](CCCCN)NC(=O)[C@H](CO)NC(=O)[C@@H](NC(=O)[C@H](CC(=O)O)NC(=O)[C@H](CO)NC(=O)[C@@H](NC(=O)[C@](C)(Cc1ccccc1)NC(=O)[C@H](CO)NC(=O)CNC(=O)[C@H](Cc1c[nH]cn1)NC(=O)C(C)(C)NC(=O)[C@@H](N)Cc1c[nH]cn1)[C@@H](C)O)C(C)C)C(C)C)C(=O)N[C@@H](C)C(=O)N[C@@H](CC(N)=O)C(=O)N[C@H](C(N)=O)[C@@H](C)O` [Peptide 276] (H-H[Aib]HGS[αMeF]TSDVSK[αMeF]LDSRAAK([γGlu-C20 diacid])D[αMeF]VQ[Aib]IANT-NH2), for which, in experiment [1], the EC50 worked out at 0.143 nM and the “% Relative Potency Ratio” value is listed as 1.3. Further, in experiment [2], the EC50 stood at 0.0914 nM.
